These are literature values, as cited in patent publication US10577339B2, “Method for manufacturing furan-2,5-dicarboxylic acid (FDCA) from a salt solution” (PURAC BIOCHEM BV, priority 2015, dated 2020).

The conditions of this series: at 40° C.

In the case of `O=S(=O)([O-])[O-].[Na+].[Na+]` [Na2SO4, sodium sulphate], the saturation concentration is on record as 32.8%.
